In one experiment the target is T1, decorin (Bos taurus, UniProt P21793).
T1 construct: Decorin from bovine fetal skin was purified and stored in 4 M guanidine hydrochloride; from tissue; host or cells: decorin from bovine fetal skin; DbpA made in E. coli JM101
In words: Inhibition ELISA: decorin attachment to DbpA-coated wells. Type of experiment: binding, bovine. The settings on record: 5 μg inhibitor pre-incubated with biotin-conjugated decorin, FIG. 3. As for the experimental part:
Immulon-1 microtiter plate wells were coated with 0.4 μg of DbpA in 50 μl of PBS over night at 4° C. The wells were washed and then blocked as described above. During the blocking step, 0.12 μg/ml of biotin-conjugated decorin was pre-incubated at 37° C. with 5 μg of each DbpA-derived peptide or DbpA. After washing, 100 μl of the biotin conjugated decorin/inhibitor mixture was added to the wells and incubated for 1 h. After washing, the wells were incubated with AP-conjugated streptavidin and developed as described above.
Decorin from bovine fetal skin was purified and stored in 4 M guanidine hydrochloride at −80° C. and dialyzed extensively against PBS before use. Decorin was labeled with digoxigenin-3-O-methylcarbonyl-ε-aminocaproic acid-N-hydroxy-succinimide ester (digoxigenin) (Boehringer Mannheim, Indianapolis. Ind.) according to the manufacturer's instructions and stored at −20° C. To label decorin with biotin, 7.5 mg of NHS-LC-Biotin (sulfosuccinimidyl-6-(biotinamido) hexanoate) (Pierce, Rockford, Ill.) was dissolved in 100 μl of dimethyl sulfoxide and combined with 0.5 mg of decorin and 0.5 ml of 0.2 M sodium borate (pH 8.0) in a total reaction volume of 1 ml.
Confirmation of the critical binding sites in DbpA for decorin and of the biophysical stability of these peptides was tested in an inhibition ELISA. DbpA, peptides P2-P9, chemically modified peptides P2 Mod-P9 Mod, and an irrelevant peptide from the Staphylococcus aureus collagen-binding adhesin, CNA4 (OSKITVDNTKNTIDVTIQG) (SEQ ID 36) were used as inhibitors of decorin attachment to DbpA-coated wells.
A general note: In an ELISA, binding on a coated surface is turned into a signal by an enzyme label.

The test system of the next experiment is recombinant DbpA. In words: Delayed-type hypersensitivity (DTH) to DbpA, footpad swelling in immunized mice. Type of experiment: in vivo, B. burgdorferi. The settings on record: C3H/HeJ mice immunized with 20 μg, challenged with 2 μg recombinant DbpA in footpad, 24 h. As for the experimental part:
(§1) Mice were immunized with recombinant DbpA (SEQ ID 1), P2 (SEQ ID 3), P4 (SEQ ID 5), P5 (SEQ ID 6), P4/P5 (SEQ ID 5/SEQ ID 6), P9 (SEQ ID 10), or the corresponding lysine modified counterparts (P2 Mod, P4 Mod, P5 Mod or P9 Mod) using the immunization schedule established by Hanson (11). Briefly, mice were immunized with 20 μg of protein or peptide in complete Freund's adjuvant (CFA) (Week 1), boosted at week 4 with the same dose in incomplete Freund's adjuvant (IFA) and infected at week 6.
Native C3H/HeJ mice immunized with DbpA (SEQ ID 1), P2 (SEQ ID 3), P4 (SEQ ID 5), P5 (SEQ ID 6), P4/P5 (SEQ ID 5/SEQ ID 6), P9 (SEQ ID 10), or the corresponding lysine modified counterparts (P2 Mod, P4 Mod, P5 Mod or P9 Mod) were challenged with 2 μg of recombinant DbpA in PBS (50 μl/footpad) 7 weeks after the initial immunization. All footpads were measured before and 24 h after challenge using a spring-loaded micrometer (Mitutoyo, Tokyo, Japan) as described (23). The mice were anesthetized as described above during footpad measurements and injections. Swelling was determined by subtracting the footpad measurements before challenge from those taken 24 h after challenge.
DTH is an in vivo method of testing T cell-dependent immune responses that are manifested by inflammation at the site of antigenic challenge. Mice immunized with DbpA (SEQ ID 1), P2 (SEQ ID 3), P4 (SEQ ID 5), P5 (SEQ ID 6), P4/P5 (SEQ ID 5/SEQ ID 6) combined, P9 (SEQ ID 10), or the corresponding lysine-modified peptides were challenged in the footpad with 2 μg of recombinant DbpA (SEQ ID 1). Footpad measurements were taken before and after challenge as described above. DbpA (SEQ ID 1)-immunized mice developed a significant footpad swelling of 53.3±3.5 (not shown) compared to mice immunized with adjuvant alone or naive mice receiving only the DbpA (SEQ ID 1) challenge. Peptide-immunized mice, with the exception of P2 (SEQ ID 3), also developed a significant DTH response to DbpA (SEQ ID 1) compared to the lysine-modified controls.

Experiment [1] concerns B. burgdorferi strain B31. Nature of the experiment: Arthritis assessment, histopathology of hind tibiotarsal joints of immunized infected mice. Type of experiment: in vivo. As to conditions: for Mean Arthritis Rating: severity score 0-4 by neutrophil infiltrate; for Mean Arthritis Rating / % Incidence (arthritis): day 14 post infection; for % Incidence (arthritis): immunized mice, tibiotarsal joint histology. As for the experimental part:
as §1
Mice (15 mice/group) were anesthetized with Metofane (methoxyflurane; Pitman-Moore, Mundelein, Ill.) and 10 mice/ group were infected i.d. at the base of the tail with 10^4 Borrelia in 100 μl of media 6 six weeks after the first immunization. The remaining 5 mice/group were tested for a DTH response to recombinant DbpA. Following infection, mice were bled 7 and 14 days postinfection. Serum was collected for antibody analysis and blood cultured for the detection of live spirochetes by inoculating 5 ml of BSK II medium with 50 μl of blood from each infected mouse and cultured for 2 weeks at 34° C. as described above. Also on day 14 postinfection, mice were sacrificed and one hind tibiotarsal joint, heart, bladder, and a 3 mm skin biopsy from the ear were aseptically removed and inoculated into separate tubes containing 6 ml of BSK II medium with antibiotics (50 μg/ml rifampacin and 100 μg/ml phosphomycin (Sigma), and incubated for 2 weeks at 34° C. as described above. Evidence of arthritis was determined by histopathological examination of formalin-fixed hind tibiotarsal joint samples.
Evidence of arthritis was determined by histopathological examination of formalin-fixed hind tibiotarsal joint samples. Tissues for histological examination were embedded in paraffin and stained with hematoxylin and eosin. All sections were examined without knowledge of the vaccination status of the mouse. Arthritis was scored by one of two methods. A positive/negative assessment was used, as well as assignment of an arthritis severity score. Joints were scored according to the levels of infiltrate (neutrophils) as follows: 0, no arthritis, 1, minimal or rare (≦10% tissue involvement); 2, mild (10-20%); […]; and 4, severe (>50%).
A similar trend was also observed for joints examined for arthritis (Table I). DbpA-(SEQ ID 1), P4-(SEQ ID 5), and P5-(SEQ ID 6) immunized mice had the lowest arthritis ratings (0.2, 1.2, and 0.4, respectively) and lowest arthritis incidence (20, 60, and 20%, respectively).

Experiment [2] deals with B. burgdorferi strain B31. In words: Joint cultures for spirochetes after infection of immunized mice. As to conditions: immunized C3H/HeJ mice, joints 14 days post infection. The format is in vivo. As for the experimental part:
as §1
Low-passage B. burgdorferi strain B31 (passage 5) was used in this study and cultured in BSK II (Barbour-Stoenner-Kelly) medium at 34° C. (22). Bacterial cultures were incubated in CO2-enriched atmosphere in a GasPak chamber (BBL, Baltimore, Md.) containing BBL GasPak Plus envelopes and a GasPak anaerobic indicator (Beckton dickinson, Cockeysville, Md.) until the cells reached log phase. Bacterial counts were determined using dark field microscopy and a Petroff-Hausser chamber.
Mice (15 mice/group) were anesthetized with Metofane (methoxyflurane; Pitman-Moore, Mundelein, Ill.) and 10 mice/ group were infected i.d. at the base of the tail with 10^4 Borrelia in 100 μl of media 6 six weeks after the first immunization. The remaining 5 mice/group were tested for a DTH response to recombinant DbpA. Following infection, mice were bled 7 and 14 days postinfection. […]

Experiment [3] concerns the target T2, decorin from bovine fetal skin (bovine), P21793.
T2 chain: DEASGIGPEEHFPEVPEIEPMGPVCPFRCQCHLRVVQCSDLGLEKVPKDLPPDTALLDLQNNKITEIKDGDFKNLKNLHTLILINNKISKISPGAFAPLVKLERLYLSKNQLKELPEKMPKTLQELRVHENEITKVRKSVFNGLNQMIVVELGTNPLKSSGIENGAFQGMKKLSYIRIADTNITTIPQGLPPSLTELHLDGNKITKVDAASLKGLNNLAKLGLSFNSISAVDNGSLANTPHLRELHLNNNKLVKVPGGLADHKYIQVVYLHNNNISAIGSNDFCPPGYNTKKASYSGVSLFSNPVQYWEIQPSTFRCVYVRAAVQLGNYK
Nature of the experiment: inhibition ELISA: biotin-conjugated decorin pre-incubated with 5 ug peptide, added to DbpA-coated wells.

The target of experiment [4] is T2, decorin from bovine fetal skin …. The experiment is described as above.

These results are taken from patent US6517838B1, “Decorin binding protein essential peptides and methods of use” (The Texas A&M University System, priority 2000, dated 2003).

Where “and” joins values, the source holds several entries; their conditions need not be identical. Equal entries are not always repeated. Where two headings read alike, the source gives them in different places. Ends that are not written are not given here.

As to “P2: overlapping synthetic 25 amino acid peptide of recombinant DbpA, contains a cystine residue (LLISCGLTGATKIKLESSAKAIVD) [Peptide P2]”, the “inhibition of decorin attachment to DbpA-coated wells” value (shortened to “inhibition of decorin attachment”) with decorin was 44% and 42%. Besides, the “DTH response to DbpA (in words)” value in the experiment with recombinant DbpA is “no response”. Besides, the “Mean Arthritis Rating” value in experiment [1] was 1.4.

For the molecule “P5: synthetic 25 amino acid DbpA peptide that maps to the K82 region (AKVRATTVAEKFVIAIEEEATKLKE) [Peptide P5]”, in the experiment with decorin, the “inhibition of decorin attachment” value is on record as 92%. Besides, the “DTH response to DbpA (in words)” value with recombinant DbpA is reported as “significant responses”. The molecule further came in with a positive joint cultures in experiment [2] of 60%. In experiment [1] (immunized infected mice), the “arthritis incidence and severity (in words)” value is recorded as “lowest”. For the same molecule, in experiment [1], the “% Incidence (arthritis)” value is recorded as 20% and the “Mean Arthritis Rating” value is recorded as 0.4.

Turning to “P4 Mod: lysine modified counterpart of P4 (DAFKDKKTGSGVSENPFILEAKVRA; also: chemically modified lysines)”, in experiment [1], the “% Incidence (arthritis)” value worked out at 2.0% and the “Mean Arthritis Rating” value was 2.0.

For “P9 Mod: lysine modified counterpart of P9 (REKLQRVHKKNQDTLKKKNTEDSTAKS; also: chemically modified lysines)”, in experiment [1], the “% Incidence (arthritis)” value was 80% and the “Mean Arthritis Rating” value is recorded as 2.0.

Turning to “P9: synthetic 25 amino acid DbpA peptide containing K163 and K170 (REKLQRVHKKNQDTLKKKNTEDSTAKS) [Peptide P9]”, the “inhibition of decorin attachment” value with decorin was 42% and 43%. The “DTH response to DbpA (in words)” value with recombinant DbpA is on record as “response greater than that of control groups but with less intensity”. Also, the “Mean Arthritis Rating” value in experiment [1] is listed as 1.25.

For “P5 Mod: lysine modified counterpart of P5 (AKVRATTVAEKFVIAIEEEATKLKE; also: chemically modified lysines)”, in experiment [1], the “% Incidence (arthritis)” value was 100% and the “Mean Arthritis Rating” value came out at 3.2.

As to “P4: synthetic 25 amino acid DbpA peptide that maps to the K82 region (DAFKDKKTGSGVSENPFILEAKVRA) [Peptide P4]”, in the experiment with decorin, the “inhibition of decorin attachment” value amounted to 64%. Further, in the experiment with recombinant DbpA, the “DTH response to DbpA (in words)” value is given as “response greater than that of control groups but with less intensity”. In experiment [1], the “% Incidence (arthritis)” value is recorded as 60% and the “Mean Arthritis Rating” value amounted to 1.2.

Consider DAFKDKKTGSGVSENPFILEAKVRA (modifications not checked) [DbpA-derived synthetic peptide P4], for which the inhibition of decorin attachment to DbpA-coated wells in experiment [3] was determined as 64%.

For the molecule REKLQRVHKKNQDTLKKKNTEDSTAKS (modifications not checked) [DbpA-derived synthetic peptide P9], the values for the inhibition of decorin attachment to DbpA-coated wells in experiment [4] and in experiment [3] were 43% and 42%, respectively.

Turning to AKVRATTVAEKFVIAIEEEATKLKE (modifications not checked) [DbpA-derived synthetic peptide P5], in experiment [3], the inhibition of decorin attachment to DbpA-coated wells stood at 92%.
